These results are taken from article PMC5612488 (Journal of the American Chemical Society, 2017).

“And” between values parts separate entries of the source, which are not always exact repeats. Equal entries are not always repeated.

One series deals with BoNT/A LC (Clostridium botulinum, UniProt P0DPI0). In kind it is biochemical.
Series [1] has as its system BoNT/A-mediated cleavage of SNAP-25 in hiPSC-derived neurons. The series is classed as cell-based, human. Particulars: for EC50: read-out: EC50, protection of BoNT/A-intoxicated neurons (SNAP-25 cleavage).
The subject of a further series is BoNT/A. Conditions: mouse.
For series [2] the following is noted: mouse, in vivo, sc, 1 mg/kg.

BoNT/A LC, sequence (P0DPI0 2-448 limits assumed): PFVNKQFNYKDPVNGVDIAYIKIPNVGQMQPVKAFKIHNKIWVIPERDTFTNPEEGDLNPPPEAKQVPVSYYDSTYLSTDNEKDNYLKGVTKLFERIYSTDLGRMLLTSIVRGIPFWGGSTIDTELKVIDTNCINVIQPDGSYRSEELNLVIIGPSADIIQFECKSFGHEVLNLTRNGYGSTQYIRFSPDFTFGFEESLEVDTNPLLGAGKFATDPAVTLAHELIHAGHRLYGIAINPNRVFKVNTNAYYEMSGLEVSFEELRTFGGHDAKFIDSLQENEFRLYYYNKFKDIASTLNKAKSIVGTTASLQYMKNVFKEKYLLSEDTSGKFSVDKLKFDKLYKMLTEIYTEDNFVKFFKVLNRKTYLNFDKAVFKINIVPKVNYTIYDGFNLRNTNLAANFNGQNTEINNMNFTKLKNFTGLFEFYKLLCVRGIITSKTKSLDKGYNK

Regarding `O=C1O[C@H]([C@@H](O)CO)C([O-])=C1O.[Na+]` [ASC, Sodium ascorbate, reference compound], on BoNT/A LC, the “effect on enzyme activity” value was “no effect”.
`c1ccc(-c2ccccn2)nc1` [BIPY, 2,2′-bipyridine]: the “result in cell-based BoNT/A assay” value in series [1] is listed as “promising results”.
For the compound `CNC(=S)NN=CC=NNC(=S)NC.[Cu+2]` [Cu(GTSM), copper (II) glyoxal-bis(4-methylthiosemicarbazone)], in the series with BoNT/A, the “in vivo efficacy against BoNT/A” value is “efficacy against BoNT/A was established”. In the series on BoNT/A (in vivo), the “efficacy after BoNT/A challenge” value was “statistically significant efficacy was not achieved” and the time to death result is reported as “significant increase”. For the same compound, in the series with BoNT/A (in vivo, sc), the “time to death post-toxin exposure” value was “marked increase”. Besides, the “survival of mice treated with complex only without toxin” value in series [2] is listed as “complete survival”. In series [1], the “delay between +complex and control curves of SNAP-25 cleavage versus time” value is on record as “less than half hour delay”; the “effect of additives NAC, ASC or BSO on complex inhibition of BoNT/A” value is “no observable effect”; the “effect on SNAP-25 cleavage” value was “able to mitigate SNAP-25 cleavage”; the EC50 is approximately 1 µM.
Regarding `COCCN(CCOC)C(=S)[S-].COCCN(CCOC)C(=S)[S-].[Cu+2]` [Cu(MEDTC)2, copper (II) bis(2-methoxyethyl)dithiocarbamate], the “in vivo efficacy against BoNT/A” value in the series with BoNT/A is “efficacy against BoNT/A was established”. Besides, the time to death result in the series on BoNT/A (in vivo) is recorded as “significant increase”. In addition, the “survival of mice treated with complex only without toxin” value in series [2] was “complete survival”. Moreover, in series [1], the “effect on SNAP-25 cleavage” value is “able to mitigate SNAP-25 cleavage” and the EC50 is approximately 1 µM.
For `Oc1c(Cl)cc(Cl)c2cccnc12` [DCOQ, 5,7-dichloroquinolin-8-ol], the “result in cell-based BoNT/A assay” value in series [1] is given as “promising results”.
Turning to CuCl2 [Cu (II)], at BoNT/A LC, the Ki is 1.56 µM and ~1 µM; the enzyme activity is listed as less than 1%; the inhibition mechanism entry is on record as “noncompetitive inhibition”; the “inhibitory activity in metal salt screen” value was “significant inhibitory activity”. Also, the “reversibility of inhibitory effect on Vmax” value on BoNT/A LC was “reversible”.

As a reminder, the Ki is the dissociation constant of the complex between target and ligand, obtained from inhibition or displacement. Low values mean higher affinity, high ones lower affinity.
